Source: US20150258059A1, “ANTIMICROBIAL AND RADIOPROTECTIVE COMPOUNDS” (BioDiem, Ltd, priority 2001, published 2015)
Values after ≈ are worked out from the molar mass of the structure shown. Read-outs that look alike come from different tables or passages of the source. Marks after values point to notes of the source that are not given here.

Tests used:
[1] = system: Enterococcus faecalis museum strain; assay: Impregnated agar serial double dilutions; conditions: meat peptone agar
E. coli = assay: MIC by solvent of formulation; conditions: for MIC: Escherichia coli
[2] = system: Citrobacter diversus B-678; assay: Sensitivity of strains: suppression of growth; type: cell-based; conditions: Compound (1) 1.0%; antibiotics disc method
Candida albicans B-45 = assay: Sensitivity of pathogenic fungi; type: cell-based; conditions: Inoculation 5 × 10^4
Acinetobacter B-677 = assay: Sensitivity of strains: suppression of growth; type: cell-based; conditions: Compound (1) 1.0%; antibiotics disc method
[3] = system: Salmonella typhimurium museum strain 727; assay: Impregnated agar serial double dilutions; conditions: meat peptone agar
[4] = system: β-hemolytic streptococcus B-624; assay: Sensitivity of strains: suppression of growth; type: cell-based; conditions: Compound (1) 1.0%; antibiotics disc method
[5] = system: Salmonella intraperitoneally; assay: Anti-bacterial activity in vivo, infected mice; conditions: schedule −1, 0, +1, +2, +3; 200 mg/kg intrmuscularly
Clostridium perfringens = assay: microbe, parasite or virus in culture; type: cell-based; conditions: 48 h
Staphylococcus aureus = assay: Rate of kill, viable counts
S. aureus = assay: MIC in increasing concentrations of plasma; type: cell-based; conditions: Staphylococcus aureus
Description: (§1) […]. Serum binding is significant in drug distribution and bioavailability.
(§2) […]. Bactericidal activity is much more affected than inhibitory activity.

Streptococcus pyogenes = assay: MIC in increasing concentrations of plasma; type: cell-based
Description: as §1, §2

Shigella sonnei B-720 = assay: Agar diffusion assay; type: cell-based
Alkaligenes sp. B-689 = assay: Sensitivity of strains: suppression of growth; type: cell-based; conditions: Compound (1) 1.0%; antibiotics disc method
[6] = system: Streptococcus pneumonia ATCC49619; assay: NCCLS broth microdilution MIC/MBC; type: cell-based; conditions: Table 9, 35° C., 24 hours
Trichophyton = assay: Sensitivity of pathogenic fungi; type: cell-based; conditions: Inoculation 10^2
B. subtilis = assay: Antibacterial activity in the presence of blood, macrodilution; type: cell-based; conditions: for MIC: Bacillus subtilis
C. laniolis 54/6 = assay: MIC/MMC against clinical strains of Campylobacter spp.; conditions: Table 18; clinical strain isolated from humans
[7] = system: Salmonella paratyphi M-16469; assay: Agar diffusion assay; type: cell-based
[8] = system: Salmonella typhimurium M-727; assay: Agar diffusion assay
C. krusei RMIT 177 = assay: M38-P microdilution MIC/MFC; type: cell-based; conditions: 35° C.
Aspergillus fumigatus = assay: NCCLS broth macro-dilution MIC/MFC (RPMI); type: cell-based; conditions: Table 10, 7 day, 30° C.
[9] = system: Staphylococcus aureus B-674; assay: Sensitivity of strains: suppression of growth; type: cell-based; conditions: Compound (1) 1.0%; antibiotics disc method
Proteus mirabilis = assay: NCCLS broth microdilution MIC/MBC; type: cell-based; conditions: for MIC: Proteus mirabilis

SMILES: C/C(=C\c1ccc2c(c1)OCO2)[N+](=O)[O-] [Compound (1)]
- Minimal % Compound (1) giving complete inhibition of test culture [1]: 0.015%
- times more active in ethanol than in DMSO (E. coli): at least 8 times
- MIC (E. coli; 2.5% DMSO): > 512 µg/mL
- MIC (E. coli; formulated in ethanol (0.06% ETON)): 128 µg/mL (≈ 618 µM)
- Suppression of Growth (+/−) [2]: +
- Number of microbes: Growth (Candida albicans B-45; 0.1%): 0
- Number of microbes: Retardation (Candida albicans B-45; 0.1%): 5 × 10^6
- Number of microbes: Growth (Candida albicans B-45; 0.5%): 0
- Number of microbes: Retardation (Candida albicans B-45; 0.5%): 5 × 10^6
- Number of microbes: Growth (Candida albicans B-45; 2.0%): 0
- Number of microbes: Retardation (Candida albicans B-45; 2.0%): 5 × 10^4
- Suppression of Growth (+/−) (Acinetobacter B-677): +
- Minimal % Compound (1) giving complete inhibition of test culture [3]: 0.5%
- Suppression of Growth (+/−) [4]: +
- Cumulative mortality (test) [5]: 47
- Incubation period days (test) [5]: 0 days
- MIC (Clostridium perfringens; Clostridium perfringens): 16 µg/mL (≈ 77.2 µM)
- MMC (Clostridium perfringens; Table 9): 32 µg/mL
- Log reduction in viable count (Staphylococcus aureus; 256 μg/mL, in 6 h): 0.5 in 6 h
- Log reduction in viable count (Staphylococcus aureus; 512 μg/mL, in 9 h): 4 in 9 h
- MIC (S. aureus; 0% plasma in MHB): 4 µg/mL (≈ 19.3 µM)
- MIC (S. aureus; 1% plasma in MHB): 4 µg/mL (≈ 19.3 µM)
- MIC (S. aureus; 2.5% plasma in MHB): 8 µg/mL (≈ 38.6 µM)
- MIC (S. aureus; 5% plasma in MHB): 8 µg/mL (≈ 38.6 µM)
- MIC (S. aureus; 10% plasma in MHB): 16 µg/mL (≈ 77.2 µM)
- MIC (S. aureus; 20% plasma in MHB): 32 µg/mL (≈ 154 µM)
- MIC (S. aureus; 50% plasma in MHB): 128 µg/mL (≈ 618 µM)
- MIC (S. aureus; 100% plasma in MHB): 128 µg/mL (≈ 618 µM)
- MIC (Streptococcus pyogenes): 256 µg/mL (≈ 1240 µM)
- MIC (Streptococcus pyogenes; 0% plasma in MHB, read-out: MIC): 4 µg/mL (≈ 19.3 µM)
- MIC (Streptococcus pyogenes; 1% plasma in MHB, read-out: MIC): 4 µg/mL (≈ 19.3 µM)
- MIC (Streptococcus pyogenes; 2.5% plasma in MHB, read-out: MIC): 8 µg/mL (≈ 38.6 µM)
- MIC (Streptococcus pyogenes; 5% plasma in MHB, read-out: MIC): 8 µg/mL (≈ 38.6 µM)
- MIC (Streptococcus pyogenes; 10% plasma in MHB, read-out: MIC): 16 µg/mL (≈ 77.2 µM)
- MIC (Streptococcus pyogenes; 20% plasma in MHB, read-out: MIC): 32 µg/mL (≈ 154 µM)
- MIC (Streptococcus pyogenes; 50% plasma in MHB, read-out: MIC): 64 µg/mL (≈ 309 µM)
- Diameter of zone of Growth inhibition (Shigella sonnei B-720; Concentration in disc 0.1%): 30# mm
- Diameter of zone of Growth inhibition (Shigella sonnei B-720; Concentration in disc 1.0%): 35# mm
- Diameter of zone of Growth inhibition (Shigella sonnei B-720; Concentration in disc 2.0%): 39# mm
- Suppression of Growth (+/−) (Alkaligenes sp. B-689): +
- MIC ([6]; Streptococcus pneumoniae, ATCC49619): 16 µg/mL (≈ 77.2 µM)
- MMC [6]: 32 µg/mL
- Number of microbes: Growth (Trichophyton; 0.1%): 0
- Number of microbes: Retardation (Trichophyton; 0.1%): 10^7
- Number of microbes: Growth (Trichophyton; 0.5%): 0
- Number of microbes: Retardation (Trichophyton; 0.5%): 10^7
- Number of microbes: Growth (Trichophyton; 2.0%): 0
- Number of microbes: Retardation (Trichophyton; 2.0%): 10^7
- MMC (B. subtilis; 5% blood): 16 µg/mL
- MMC (B. subtilis; 10% plasma): 8 µg/mL
- MIC (B. subtilis; 5% blood): 8 µg/mL
- MIC (B. subtilis; 10% plasma): 8 µg/mL
- MIC (B. subtilis; — (no plasma or blood)): 16 µg/mL
- MMC (C. laniolis 54/6): 2
- Diameter of zone of Growth inhibition ([7]; Concentration in disc 0.1%): 28# mm
- Diameter of zone of Growth inhibition ([7]; Concentration in disc 1.0%): 30# mm
- Diameter of zone of Growth inhibition ([7]; Concentration in disc 2.0%): 36# mm
- Diameter of zone of Growth inhibition ([8]; Concentration in disc 0.1%): 24# mm
- Diameter of zone of Growth inhibition ([8]; Concentration in disc 1.0%): 30# mm
- Diameter of zone of Growth inhibition ([8]; Concentration in disc 2.0%): 32# mm
- MIC (C. krusei RMIT 177; Pichia kudriavzevii, RMIT177, Table 16, 24 h, read-out: MIC): 4 µg/mL (≈ 19.3 µM)
- MMC (C. krusei RMIT 177; Table 16, 24 h): 4 µg/mL
- MIC (Aspergillus fumigatus; Aspergillus fumigatus, 168 h): 8 µg/mL (≈ 38.6 µM)
- MMC (Aspergillus fumigatus): 32 µg/mL
- Suppression of Growth (+/−) [9]: +
- MIC (Proteus mirabilis): 256 µg/mL (≈ 1240 µM)
- MIC (Proteus mirabilis; 24 h): 256 µg/mL (≈ 1240 µM)
- MMC (Proteus mirabilis; Table 9, 35° C., 24 hours): >512 µg/mL
- MMC (Proteus mirabilis; Table 17, 2 or 3 replicates): >512 µg/mL
